One experiment has as its system HUVEC. Briefly: F-actin visualization and cell shape in HUVECs (phalloidin). The format is cell-based, human. Particulars: 10 μM, three hours. The procedure:
For F-actin visualization, HUVECs were plated and treated with saline or DAL (10 μM) for three hours. After fixing and permeabilizing these cultured cells, the cells were subsequently stained with phalloidin. […] Existing cordlike structures, when exposed to 10 μM of DAL for 3 hours, were also disrupted. […] HUVEC monolayers were disrupted mechanically with a pipette tip and the migration of cells to “heal” the wound was monitored using microscopy.
To gain further insight into the anti-vascular effects of DAL and to assess the involvement of DAL in modulating actin assembly, normal human umbilical vein endothelial cells(HUVEC) were plated and treated with 10 μM DAL for three hours. The cells were fixed, permeabilized, and subsequently stained with phalloidin to visualize F-actin (FIG. 5A).

Another experiment relates to Cdc42. Briefly: Cdc42 activation pull-down assay (PAK-PBD) in HUVECs. The format is cell-based, human. Here is the method: Rac1 and cdc42 activities were measured with a Rac1 (BK035) activation assay biochem kit (Cytoskeleton) according to the manufacturer protocol. In brief, human umbilical vein endothelial cells (HUVECs) were bovine brain extract-starved for 12 hours in 1% FBS-EGM (Lonza) and pretreated with various concentrations of DAL for 30 minutes at 37° C. The HUVECs were then stimulated with VEGF at […] for 15 minutes at 37° C. After stimulation, the cells were immediately incubated on ice, washed twice with PBS, and lysed with lysis buffer. The lysates were pre-cleared and added with 15 μl of PAK-PBD beads for pull-down of activated Rac1 or cdc42. After rocking at 4° C. for 1 hour, the beads were washed once and boiled at 100° C. for 2 minutes. The protein lysates were then resolved in a 8-16% gradient gel (Invitrogen) and transferred to a PVDF membrane. Primary antibodies (anti-Rac1, 1:1000, cytoskeleton or anti-cdc42, 1:1000, cell signaling) were added to bind to the protein overnight at 4° C., followed by incubation with HRP-conjugated secondary antibodies. Protein activity was measured by the standard ECL method (Amersham).
Without wishing to be bound by theory, DAL brings about its antivascular effects by destabilizing cell adhesion through the actin cytoskeleton. […] Therefore, potential targets of DAL in signaling pathways involved in actin remodeling were evaluated. […]

The next experiment has as its target recombinant purified IDO (Homo sapiens, UniProt P14902). Briefly: Enzymatic assay with recombinant purified IDO. Format: biochemical. Here is the method:
To determine whether DAL is an immuno-modulator, the effect of DAL on IDO activity was measured. To monitor IDO enzymatic activity, HEK 293 cells were engineered to express IDO and treated with DAL in a 10-dose IC50 mode with threefold serial dilutions. The IDO activity was analyzed by the presence of kynurenine (the first stable catabolite downstream of IDO) with a spectrophotometric assay (Katz et al., 2008; Littlejohn et al., 2000). […] Because DAL inhibits recombinant purified IDO in the enzymatic assay, it is likely that DAL physically interacts with IDO1, forming a complex that represses IDO1 activity. To elucidate a possible structural basis for this inhibition, comparative modeling and molecular docking were used (FIGS. 9A-9D). […] These residues are disordered in all existing IDO structures (Thackray et al., 2008); however, in the tryptophan-bound bacterial TDO structure, the corresponding loop is well-ordered and forms a “lid” on the binding pocket. Similar to human IDO1, bacterial TDO is a heme enzyme catalyzing the conversion of tryptophan into N-formyl-kynurenine. The binding site residues are strongly conserved between the two enzymes: in particular, the lid sequences share the common motif [K/R]GTGG[T/S]. It was therefore assessed that if lid closure may be a critical step for the efficient reaction catalysis by IDO. […]

recombinant purified IDO, sequence (P14902 whole entry): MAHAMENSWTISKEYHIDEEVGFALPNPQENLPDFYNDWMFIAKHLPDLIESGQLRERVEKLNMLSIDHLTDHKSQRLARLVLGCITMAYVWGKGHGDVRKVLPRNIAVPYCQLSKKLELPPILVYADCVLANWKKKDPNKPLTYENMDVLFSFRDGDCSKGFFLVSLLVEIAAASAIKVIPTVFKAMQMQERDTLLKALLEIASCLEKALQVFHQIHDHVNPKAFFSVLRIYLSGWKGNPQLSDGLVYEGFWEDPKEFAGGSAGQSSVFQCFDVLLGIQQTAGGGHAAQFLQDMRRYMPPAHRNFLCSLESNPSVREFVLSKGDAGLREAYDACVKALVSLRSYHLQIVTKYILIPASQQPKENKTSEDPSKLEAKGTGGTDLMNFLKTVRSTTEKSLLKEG

As to `CC1(C)C=CC2=C(O1)C(=O)c1ccccc1C2=O` [DAL, dehydro-alpha-lapachone], the “cell size and shape” value with HUVEC was “smaller than untreated control cells and had a rounded shape”. In addition, the F-actin organization result with HUVEC (phalloidin) is “actin present only as small fibers and spots throughout the cells or accumulated close to the nuclei”. Also, the Cdc42 activity result in the experiment on Cdc42 was “no effect”. Further, the “inhibition of recombinant purified IDO” value at recombinant purified IDO is given as “inhibits”.

The record behind these values is patent US20140161720A1, “TREATMENT OF ANGIOGENIC- OR VASCULAR-ASSOCIATED DISEASES” (THE GENERAL HOSPITAL CORPORATION, priority 2011, published 2014).
